Experimental data as given in publication PMC7898037, “Improving mitochondria and ER stability helps eliminate upper motor neuron degeneration that occurs due to mSOD1 toxicity and TDP‐43 pathology” (Clinical and Translational Medicine, 2021).

Tests used:
Weight of the mice = type: in vivo; design: Mean Diff. of weight, vehicle vs. NU-9: unit not given here; details: for Mean weight (Mean 2): hSOD1G93A-UeGFP mice, in g (unit assumed); for Weight, Average: hSOD1G93A-UeGFP
Description: (§1) hSOD1^G93A‐UeGFP, prpTDP‐43^A315T‐UeGFP and WT‐UeGFP mice were weighed and the required NU‐9 dose per weight was calculated (20 or 100 mg/kg), which was administered once daily by oral gavage, starting at postnatal day (P)60 and continuing until P120. Animals from the untreated group received the vehicle (NMP and olive oil) only. For oral administration purposes, 20 ga × 38 mm plastic feeding tubes were used (Instech Laboratories, Inc). The gavage tip was inserted into the mouth directly over the tongue and into the pharynx. While observing the swallowing reflex, the tip was safely and smoothly slid into the esophagus. Once the administration was completed, the gavage tip was pulled straight out.
(§2) Behavior data were collected from hSOD1^G93A‐UeGFP and WT‐UeGFP mice (starting at P60 and every 7 days until P116) and from prpTDP‐43^A315T‐UeGFP mice (at P60, P90, and P120) with the following number of mice for each group: WT‐UeGFP vehicle (n = 10), hSOD1^G93A‐UeGFP vehicle (n = 6), WT‐UeGFP 20 mg/kg/day NU‐9 (n = 5), hSOD1^G93A‐UeGFP 20 mg/kg/day NU‐9 (n = 7), WT‐UeGFP 100 mg/kg/day NU‐9 (n = 11), hSOD1^G93A‐UeGFP 100 mg/kg/day NU‐9 (n = 9), prpTDP‐43^A315T‐UeGFP untreated (n ≥ 3), and prpTDP‐43^A315T‐UeGFP 100 mg/kg/day NU‐9 (n = 4) (Table S3).

[1] = tested on: prpTDP‐43^A315T‐UeGFP mice; assay: Rotarod test, prpTDP‐43^A315T‐UeGFP mice; type: in vivo; details: for Rotarod, Predicted (LS) mean: prpTDP-43A315T-UeGFP (NU-9 100 mg/kg/day); for Rotarod, Average: prpTDP-43A315T-UeGFP, NU-9 100 mg/kg/day po
Description: as §1, §2
Mice were placed on a rotating rod that accelerates linearly from 4 to 40 rpm (Rotarod, Ugo Basile), and the average time spent on the rotating rod for three consecutive trials was calculated for each mouse. Mice were allowed to run for a maximum of 5 min with a 5 min rest period between each run, and the latency to fall was recorded for three consecutive trials. The average of the three trials was taken as the data point for each mouse at the age tested, and the performance of different groups are reported as the mean ± SEM.

## C[C@H](Oc1cc(C(F)(F)F)cc(C(F)(F)F)c1)C1CC(=O)CC(=O)C1 [NU‐9]
Weight of the mice; hSOD1G93A-UeGFP (vehicle) vs. hSOD1G93A-UeGFP (NU-9 20 mg/kg/day), P81, Tukey's multiple comparisons test
  Mean Diff. of weight, vehicle vs. NU-9: 0.5952
Weight of the mice; hSOD1G93A-UeGFP (vehicle) vs. hSOD1G93A-UeGFP (NU-9 20 mg/kg/day), P88, Tukey's multiple comparisons test
  Mean Diff. of weight, vehicle vs. NU-9: 0.2857
Weight of the mice; hSOD1G93A-UeGFP (vehicle) vs. hSOD1G93A-UeGFP (NU-9 20 mg/kg/day), P95, Tukey's multiple comparisons test
  Mean Diff. of weight, vehicle vs. NU-9: 0.7619
Weight of the mice; hSOD1G93A-UeGFP (vehicle) vs. hSOD1G93A-UeGFP (NU-9 20 mg/kg/day), P102, Tukey's multiple comparisons test
  Mean Diff. of weight, vehicle vs. NU-9: 0.5714
Weight of the mice; hSOD1G93A-UeGFP (vehicle) vs. hSOD1G93A-UeGFP (NU-9 20 mg/kg/day), P109, Tukey's multiple comparisons test
  Mean Diff. of weight, vehicle vs. NU-9: 0.4762
Weight of the mice; hSOD1G93A-UeGFP (vehicle) vs. hSOD1G93A-UeGFP (NU-9 20 mg/kg/day), P116, Tukey's multiple comparisons test
  Mean Diff. of weight, vehicle vs. NU-9: -0.1429
Weight of the mice; hSOD1G93A-UeGFP (vehicle) vs. hSOD1G93A-UeGFP (NU-9 100 mg/kg/day), P60, Tukey's multiple comparisons test
  Mean Diff. of weight, vehicle vs. NU-9: 1.222
Weight of the mice; hSOD1G93A-UeGFP (vehicle) vs. hSOD1G93A-UeGFP (NU-9 100 mg/kg/day), P67, Tukey's multiple comparisons test
  Mean Diff. of weight, vehicle vs. NU-9: 1.167
Weight of the mice; hSOD1G93A-UeGFP (vehicle) vs. hSOD1G93A-UeGFP (NU-9 100 mg/kg/day), P74, Tukey's multiple comparisons test
  Mean Diff. of weight, vehicle vs. NU-9: 0.2222
Weight of the mice; hSOD1G93A-UeGFP (vehicle) vs. hSOD1G93A-UeGFP (NU-9 100 mg/kg/day), P81, Tukey's multiple comparisons test
  Mean Diff. of weight, vehicle vs. NU-9: 0.7222
Weight of the mice; hSOD1G93A-UeGFP (vehicle) vs. hSOD1G93A-UeGFP (NU-9 100 mg/kg/day), P88, Tukey's multiple comparisons test
  Mean Diff. of weight, vehicle vs. NU-9: 0.1111
Weight of the mice; hSOD1G93A-UeGFP (vehicle) vs. hSOD1G93A-UeGFP (NU-9 100 mg/kg/day), P95, Tukey's multiple comparisons test
  Mean Diff. of weight, vehicle vs. NU-9: 0.1111
Weight of the mice; hSOD1G93A-UeGFP (vehicle) vs. hSOD1G93A-UeGFP (NU-9 100 mg/kg/day), P102, Tukey's multiple comparisons test
  Mean Diff. of weight, vehicle vs. NU-9: 0
Weight of the mice; hSOD1G93A-UeGFP (vehicle) vs. hSOD1G93A-UeGFP (NU-9 100 mg/kg/day), P109, Tukey's multiple comparisons test
  Mean Diff. of weight, vehicle vs. NU-9: 0.5556
Weight of the mice; hSOD1G93A-UeGFP (vehicle) vs. hSOD1G93A-UeGFP (NU-9 100 mg/kg/day), P116, Tukey's multiple comparisons test
  Mean Diff. of weight, vehicle vs. NU-9: 0.1111
Weight of the mice; NU-9 20 mg/kg/day, P60
  Mean weight (Mean 2): 17
Weight of the mice; NU-9 20 mg/kg/day, P67
  Mean weight (Mean 2): 16.86
Weight of the mice; NU-9 20 mg/kg/day, P74
  Mean weight (Mean 2): 16.43
Weight of the mice; NU-9 20 mg/kg/day, P81
  Mean weight (Mean 2): 16.57
Weight of the mice; NU-9 20 mg/kg/day, P88
  Mean weight (Mean 2): 16.71
Weight of the mice; NU-9 20 mg/kg/day, P95
  Mean weight (Mean 2): 16.57
Weight of the mice; NU-9 100 mg/kg/day, P60
  Mean weight (Mean 2): 16.44
Weight of the mice; NU-9 100 mg/kg/day, P67
  Mean weight (Mean 2): 16.33
Weight of the mice; NU-9 100 mg/kg/day, P74
  Mean weight (Mean 2): 16.44
Weight of the mice; NU-9 100 mg/kg/day, P81
  Mean weight (Mean 2): 16.44
Weight of the mice; NU-9 100 mg/kg/day, P88
  Mean weight (Mean 2): 16.89
Weight of the mice; NU-9 100 mg/kg/day, P95
  Mean weight (Mean 2): 17.22
Weight of the mice; NU-9 20 mg/kg/day po, P60
  Weight, Average: 17 g
Weight of the mice; NU-9 20 mg/kg/day po, P67
  Weight, Average: 16.8571 g
Weight of the mice; NU-9 20 mg/kg/day po, P74
  Weight, Average: 16.4286 g
Weight of the mice; NU-9 20 mg/kg/day po, P81
  Weight, Average: 16.5714 g
Weight of the mice; NU-9 20 mg/kg/day po, P88
  Weight, Average: 16.7143 g
Weight of the mice; NU-9 20 mg/kg/day po, P95
  Weight, Average: 16.5714 g
Weight of the mice; NU-9 20 mg/kg/day po, P102
  Weight, Average: 16.4286 g
Weight of the mice; NU-9 20 mg/kg/day po, P109
  Weight, Average: 16.8571 g
Weight of the mice; NU-9 20 mg/kg/day po, P116
  Weight, Average: 17.1429 g
Weight of the mice; NU-9 100 mg/kg/day po, P60
  Weight, Average: 16.4444 g
Weight of the mice; NU-9 100 mg/kg/day po, P67
  Weight, Average: 16.3333 g
Weight of the mice; NU-9 100 mg/kg/day po, P74
  Weight, Average: 16.4444 g
Weight of the mice; NU-9 100 mg/kg/day po, P81
  Weight, Average: 16.4444 g
Weight of the mice; NU-9 100 mg/kg/day po, P88
  Weight, Average: 16.8889 g
Weight of the mice; NU-9 100 mg/kg/day po, P95
  Weight, Average: 17.2222 g
Weight of the mice; NU-9 100 mg/kg/day po, P102
  Weight, Average: 17 g
Weight of the mice; NU-9 100 mg/kg/day po, P109
  Weight, Average: 16.7778 g
Weight of the mice; NU-9 100 mg/kg/day po, P116
  Weight, Average: 16.8889 g
[1]; P60, mixed-effects analysis
  Rotarod, Predicted (LS) mean: 260
[1]; P90, mixed-effects analysis
  Rotarod, Predicted (LS) mean: 216
[1]; P120, mixed-effects analysis
  Rotarod, Predicted (LS) mean: 165.8
[1]; P60
  Rotarod, Average: 267.889
[1]; P90
  Rotarod, Average: 232.556
[1]; P120
  Rotarod, Average: 178.444
[1]; prpTDP‐43^A315T‐UeGFP mice, 100 mg/kg/day, after 30 days of treatment
  rotarod test, latency to fall: 232.6 ± 18.1 s
